Data: ChEMBL document CHEMBL1201862, “PubChem BioAssay data set” (2004)
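Values below derive from 48-hour exposures of cells grown in 96-well plates, with endpoints linearly interpolated between the two concentrations bracketing the appropriate inhibition level. GI50: concentration for 50% inhibition of growth.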 Active and inactive are the calls of the source. Cut-off read from the data, not from the text of the source: active = GI50 up to about 1.1 µM and inactive = higher.

Assays:
Assay in all cases: NCI anticancer screen, dose series, 48 h
UACC-257 = tested on: UACC-257
RPMI-8226 = tested on: RPMI-8226
Malme-3M = tested on: Malme-3M
EKVX = tested on: EKVX
SF-295 = tested on: SF-295
OVCAR-5 = tested on: OVCAR-5
NCI-H460 = tested on: NCI-H460
786-0 = tested on: 786-0
SK-MEL-2 = tested on: SK-MEL-2
SK-MEL-28 = tested on: SK-MEL-28
ACHN = tested on: ACHN
COLO 205 = tested on: COLO 205
MOLT-4 = tested on: MOLT-4
SW-620 = tested on: SW-620
SK-MEL-5 = tested on: SK-MEL-5
NCI-H522 = tested on: NCI-H522
HCT-116 = tested on: HCT-116
HOP-62 = tested on: HOP-62
LOX IMVI = tested on: LOX IMVI

Measured: GI50

N/N=c1\c2ccccc2c2ccc3c4ccccc4/c(=N\N)c3c12
inactive: UACC-257 > 100 µM | RPMI-8226 > 100 µM | Malme-3M > 100 µM | EKVX > 100 µM | SF-295 > 100 µM | OVCAR-5 > 100 µM | NCI-H460 > 100 µM | 786-0 > 100 µM | SK-MEL-2 > 100 µM | SK-MEL-28 > 100 µM | ACHN > 100 µM | COLO 205 > 100 µM | MOLT-4 > 100 µM | SW-620 > 100 µM | SK-MEL-5 > 100 µM | NCI-H522 > 100 µM | HCT-116 > 100 µM | HOP-62 > 100 µM

CC1CCN(c2cc(-c3cc4ccccc4o3)oc(=O)c2C#N)CC1
inactive: UACC-257 > 100 µM | RPMI-8226 > 100 µM | Malme-3M > 100 µM | EKVX > 100 µM | SF-295 68.9 µM | OVCAR-5 > 100 µM | NCI-H460 > 100 µM | SK-MEL-2 > 100 µM | SK-MEL-28 > 100 µM | ACHN > 100 µM | COLO 205 > 100 µM | MOLT-4 > 100 µM | SW-620 > 100 µM | SK-MEL-5 > 100 µM | HCT-116 > 100 µM | LOX IMVI > 100 µM

CC(=O)OCc1nnn2c1C(OC(C)=O)CC2 (configuration not stated)
inactive: UACC-257 > 100 µM | RPMI-8226 > 100 µM | Malme-3M > 100 µM | EKVX > 100 µM | SF-295 > 100 µM | OVCAR-5 > 100 µM | NCI-H460 > 100 µM | 786-0 > 100 µM | SK-MEL-2 > 100 µM | SK-MEL-28 > 100 µM | ACHN > 100 µM | COLO 205 > 100 µM | MOLT-4 > 100 µM | SW-620 > 100 µM | SK-MEL-5 > 100 µM | NCI-H522 > 100 µM | HCT-116 > 100 µM

CCn1cnnc1-c1nsc2ccccc12
inactive: UACC-257 > 100 µM | RPMI-8226 > 100 µM | EKVX 26.9 µM | OVCAR-5 7.52 µM | NCI-H460 > 100 µM | SK-MEL-2 > 100 µM | SK-MEL-28 > 100 µM | ACHN > 100 µM | COLO 205 > 100 µM | MOLT-4 > 10 µM | SW-620 > 100 µM | SK-MEL-5 83.8 µM | HCT-116 > 100 µM | LOX IMVI > 100 µM | HOP-62 > 100 µM

Nc1c(-c2ccccc2[N+](=O)[O-])nc2ccccn12
inactive: UACC-257 > 100 µM | RPMI-8226 > 100 µM | Malme-3M > 100 µM | EKVX > 100 µM | SF-295 > 100 µM | OVCAR-5 > 100 µM | NCI-H460 > 100 µM | SK-MEL-2 > 100 µM | SK-MEL-28 > 100 µM | ACHN > 100 µM | COLO 205 > 100 µM | MOLT-4 > 100 µM | SW-620 > 100 µM | SK-MEL-5 > 100 µM | HCT-116 > 100 µM | LOX IMVI > 100 µM | HOP-62 > 100 µM

O=C1NCCCC12CCCNC2=O
inactive: UACC-257 > 100 µM | RPMI-8226 > 100 µM | Malme-3M > 100 µM | EKVX > 100 µM | SF-295 > 100 µM | NCI-H460 > 100 µM | 786-0 > 100 µM | SK-MEL-28 > 100 µM | ACHN > 100 µM | COLO 205 > 100 µM | MOLT-4 > 100 µM | SW-620 > 100 µM | SK-MEL-5 > 100 µM | NCI-H522 > 100 µM | HCT-116 > 100 µM | LOX IMVI > 100 µM | HOP-62 > 100 µM

COc1ccc(NC(=O)C(=O)Cc2ccc([N+](=O)[O-])c([N+](=O)[O-])c2CC(=O)C(=O)Nc2ccc(OC)cc2OC)c(OC)c1
inactive: UACC-257 > 100 µM | RPMI-8226 > 100 µM | Malme-3M > 100 µM | EKVX > 100 µM | SF-295 > 100 µM | OVCAR-5 > 100 µM | NCI-H460 > 100 µM | 786-0 > 100 µM | SK-MEL-28 > 100 µM | ACHN > 100 µM | COLO 205 > 100 µM | MOLT-4 > 100 µM | SW-620 > 100 µM | NCI-H522 58.6 µM | HCT-116 > 100 µM | LOX IMVI > 100 µM | HOP-62 > 100 µM

Cc1ccc(N2C(=O)N(c3ccc(C)cc3)C3(SC=NN3C)C2=O)cc1 (configuration not stated)
inactive: UACC-257 38.6 µM | RPMI-8226 49.2 µM | Malme-3M 95.5 µM | EKVX > 100 µM | SF-295 47.8 µM | NCI-H460 > 100 µM | 786-0 > 100 µM | SK-MEL-28 > 100 µM | ACHN 65.6 µM | COLO 205 91 µM | MOLT-4 63.2 µM | SW-620 > 100 µM | SK-MEL-5 30 µM | NCI-H522 37.8 µM | HCT-116 46.6 µM | LOX IMVI 32.3 µM | HOP-62 > 100 µM

C/C(=N\NC(=S)Nc1ccc(C(=O)O)cc1)c1ccccn1
inactive: UACC-257 25.4 µM | RPMI-8226 29.8 µM | Malme-3M 15.5 µM | EKVX 27.9 µM | SF-295 40.4 µM | OVCAR-5 21.3 µM | NCI-H460 21.6 µM | 786-0 17.4 µM | SK-MEL-2 17.6 µM | SK-MEL-28 44 µM | ACHN 16.7 µM | COLO 205 18.4 µM | MOLT-4 33.3 µM | SW-620 19.2 µM | SK-MEL-5 16.9 µM | HCT-116 23.5 µM | LOX IMVI 16.7 µM | HOP-62 30.5 µM

O=C1c2ccccc2-c2cccc3ccc(Cc4ccc5ccccc5c4)c1c23
inactive: UACC-257 > 100 µM | RPMI-8226 > 100 µM | Malme-3M > 100 µM | EKVX > 100 µM | SF-295 > 100 µM | OVCAR-5 > 100 µM | NCI-H460 > 100 µM | 786-0 76.6 µM | SK-MEL-2 > 100 µM | SK-MEL-28 > 100 µM | ACHN > 100 µM | COLO 205 > 100 µM | MOLT-4 > 100 µM | SW-620 > 100 µM | SK-MEL-5 > 100 µM | NCI-H522 15.6 µM | HCT-116 > 100 µM | HOP-62 > 100 µM

CC/C=C\C/C=C\C/C=C\CCCCCCCC(=O)OCC
inactive: UACC-257 > 100 µM | RPMI-8226 70.6 µM | Malme-3M > 100 µM | EKVX > 100 µM | SF-295 > 100 µM | OVCAR-5 > 100 µM | 786-0 > 100 µM | SK-MEL-2 > 100 µM | SK-MEL-28 > 100 µM | ACHN > 100 µM | COLO 205 > 100 µM | MOLT-4 87.1 µM | SW-620 > 100 µM | SK-MEL-5 > 100 µM | HCT-116 > 100 µM | LOX IMVI 42.6 µM | HOP-62 > 100 µM

CCC1N2CCCCC2[C@@H]2c3[nH]c4ccccc4c3CCN12 (some centres not stated)
inactive: UACC-257 > 100 µM | RPMI-8226 > 100 µM | Malme-3M > 100 µM | EKVX > 100 µM | SF-295 > 100 µM | OVCAR-5 > 100 µM | NCI-H460 > 100 µM | 786-0 > 100 µM | SK-MEL-2 > 100 µM | SK-MEL-28 > 100 µM | ACHN > 100 µM | COLO 205 > 100 µM | MOLT-4 > 100 µM | SW-620 > 100 µM | SK-MEL-5 > 100 µM | NCI-H522 > 100 µM | HCT-116 > 100 µM | HOP-62 > 100 µM

Cc1ccc(NC(=O)c2cc3ccccc3c(/N=N/c3cc(S(=O)(=O)O)ccc3O)c2O)c(C)c1
inactive: UACC-257 23.8 µM | RPMI-8226 15 µM | Malme-3M 16.4 µM | EKVX 19.6 µM | SF-295 10 µM | OVCAR-5 16.2 µM | 786-0 16.2 µM | SK-MEL-2 16 µM | SK-MEL-28 18.7 µM | ACHN 5.97 µM | COLO 205 36.8 µM | MOLT-4 17.1 µM | SW-620 10.9 µM | SK-MEL-5 23.7 µM | NCI-H522 25.4 µM | HCT-116 29.9 µM | LOX IMVI 32.4 µM | HOP-62 13.1 µM

CN1C=C(C(N)=O)Cc2ccsc21
inactive: UACC-257 > 100 µM | RPMI-8226 > 100 µM | Malme-3M > 100 µM | EKVX > 100 µM | SF-295 > 100 µM | OVCAR-5 > 100 µM | NCI-H460 > 100 µM | 786-0 > 100 µM | SK-MEL-2 > 100 µM | SK-MEL-28 > 100 µM | ACHN > 100 µM | COLO 205 > 100 µM | MOLT-4 > 100 µM | SW-620 > 100 µM | SK-MEL-5 > 100 µM | NCI-H522 > 100 µM | HCT-116 > 100 µM | HOP-62 > 100 µM

Cc1ccc(/C=N/n2c(Cc3ccccc3)n[nH]c2=O)cc1
inactive: UACC-257 > 100 µM | RPMI-8226 > 100 µM | Malme-3M > 100 µM | EKVX > 100 µM | SF-295 35.9 µM | OVCAR-5 > 100 µM | NCI-H460 > 100 µM | 786-0 80.9 µM | SK-MEL-28 > 100 µM | ACHN > 100 µM | COLO 205 > 100 µM | MOLT-4 > 100 µM | SW-620 > 100 µM | SK-MEL-5 > 100 µM | NCI-H522 > 100 µM | HCT-116 > 100 µM | LOX IMVI > 100 µM | HOP-62 37.2 µM

CCOC(=O)Nc1ccc(S(=O)(=O)OC)cc1.CCOC(=O)Nc1ccc(S(=O)(=O)OC)cc1.Cc1cn(C2CC(O)C(CO)O2)c(=O)[nH]c1=O
inactive: UACC-257 > 100 µM | RPMI-8226 36.5 µM | Malme-3M > 100 µM | EKVX > 100 µM | SF-295 > 100 µM | OVCAR-5 > 100 µM | NCI-H460 > 100 µM | 786-0 35.4 µM | SK-MEL-2 > 100 µM | SK-MEL-28 > 100 µM | ACHN > 100 µM | COLO 205 > 100 µM | MOLT-4 > 100 µM | SW-620 19.4 µM | SK-MEL-5 > 100 µM | HCT-116 10 µM | LOX IMVI 18.3 µM | HOP-62 > 100 µM
